Reference: PubChem BioAssay (NCI)
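Growth conditions: 96-well plates. Treatment: test compound, 48 hours, 5 concentrations. Analysis: linear interpolation between bracketing concentrations; unreached endpoints set to highest concentration. Definition used: TGI = concentration required for complete inhibition of growth.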

Key:
Assay in all cases: growth of human tumour cells (NCI), 48 h
UO-31 renal = test system: UO-31 renal
PC-3 prostate = test system: PC-3 prostate
OVCAR-5 ovarian = test system: OVCAR-5 ovarian
SF-539 CNS = test system: SF-539 CNS
MCF7 breast = test system: MCF7 breast
SW-620 colon = test system: SW-620 colon
SK-MEL-2 melanoma = test system: SK-MEL-2 melanoma
HCT-116 colon = test system: HCT-116 colon
RXF 393 renal = test system: RXF 393 renal
HL-60(TB) leukemia = test system: HL-60(TB) leukemia
LOX IMVI melanoma = test system: LOX IMVI melanoma
NCI-H226 lung = test system: NCI-H226 lung
HT29 colon = test system: HT29 colon
SNB-75 CNS = test system: SNB-75 CNS
K-562 leukemia = test system: K-562 leukemia
HOP-62 NSCLC = test system: HOP-62 NSCLC
RPMI-8226 leukemia = test system: RPMI-8226 leukemia
SNB-19 CNS = test system: SNB-19 CNS
A498 renal = test system: A498 renal
OVCAR-4 ovarian = test system: OVCAR-4 ovarian
SF-268 CNS = test system: SF-268 CNS
HS 578T breast = test system: HS 578T breast
MALME-3M melanoma = test system: MALME-3M melanoma
OVCAR-8 ovarian = test system: OVCAR-8 ovarian
NCI-H23 lung = test system: NCI-H23 lung
A549 NSCLC = test system: A549 NSCLC
MDA-MB-231 breast = test system: MDA-MB-231 breast
IGROV1 ovarian = test system: IGROV1 ovarian
SN12C renal = test system: SN12C renal
M14 melanoma = test system: M14 melanoma
NCI-H522 lung = test system: NCI-H522 lung
U251 CNS = test system: U251 CNS
ACHN renal = test system: ACHN renal
KM12 colon = test system: KM12 colon
HCT-15 colon = test system: HCT-15 colon
SK-MEL-5 melanoma = test system: SK-MEL-5 melanoma
CAKI-1 renal = test system: CAKI-1 renal
HCC-2998 colon = test system: HCC-2998 colon
SK-OV-3 ovarian = test system: SK-OV-3 ovarian
BT-549 breast = test system: BT-549 breast
SF-295 CNS = test system: SF-295 CNS
UACC-257 melanoma = test system: UACC-257 melanoma
NCI-H460 lung = test system: NCI-H460 lung
T-47D breast = test system: T-47D breast
MDA-MB-435 = test system: MDA-MB-435
HOP-92 NSCLC = test system: HOP-92 NSCLC
SK-MEL-28 melanoma = test system: SK-MEL-28 melanoma
EKVX NSCLC = test system: EKVX NSCLC
TK-10 renal = test system: TK-10 renal
OVCAR-3 ovarian = test system: OVCAR-3 ovarian
MDA-N = test system: MDA-N
UACC-62 melanoma = test system: UACC-62 melanoma
786-0 renal = test system: 786-0 renal
NCI/ADR-RES ovarian = test system: NCI/ADR-RES ovarian
SR leukemia = test system: SR leukemia
DU-145 prostate = test system: DU-145 prostate
MOLT-4 leukemia = test system: MOLT-4 leukemia

SMILES: COC(=O)C(=O)C(C(=O)OC)C(=O)C(=O)Nc1c(Cl)cc([N+](=O)[O-])cc1Cl (stereo unspecified)
- TGI (UO-31 renal): > 100 µM
- TGI (PC-3 prostate): > 100 µM
- TGI (OVCAR-5 ovarian): > 100 µM
- TGI (SF-539 CNS): > 100 µM
- TGI (MCF7 breast): > 100 µM
- TGI (SW-620 colon): > 100 µM
- TGI (SK-MEL-2 melanoma): > 100 µM
- TGI (HCT-116 colon): > 100 µM
- TGI (RXF 393 renal): > 100 µM
- TGI (HL-60(TB) leukemia): > 100 µM
- TGI (LOX IMVI melanoma): > 100 µM
- TGI (NCI-H226 lung): > 100 µM
- TGI (HT29 colon): > 100 µM
- TGI (SNB-75 CNS): > 100 µM
- TGI (K-562 leukemia): > 100 µM
- TGI (HOP-62 NSCLC): > 100 µM
- TGI (RPMI-8226 leukemia): > 100 µM
- TGI (SNB-19 CNS): > 100 µM
- TGI (A498 renal): > 100 µM
- TGI (OVCAR-4 ovarian): > 100 µM
- TGI (SF-268 CNS): > 100 µM
- TGI (HS 578T breast): > 100 µM
- TGI (MALME-3M melanoma): > 100 µM
- TGI (OVCAR-8 ovarian): > 100 µM
- TGI (NCI-H23 lung): > 100 µM
- TGI (A549 NSCLC): > 100 µM
- TGI (MDA-MB-231 breast): > 100 µM
- TGI (IGROV1 ovarian): > 100 µM
- TGI (SN12C renal): > 100 µM
- TGI (M14 melanoma): > 100 µM
- TGI (NCI-H522 lung): > 100 µM
- TGI (U251 CNS): > 100 µM
- TGI (ACHN renal): > 100 µM
- TGI (KM12 colon): > 100 µM
- TGI (HCT-15 colon): > 100 µM
- TGI (SK-MEL-5 melanoma): > 100 µM
- TGI (CAKI-1 renal): > 100 µM
- TGI (HCC-2998 colon): > 100 µM
- TGI (SK-OV-3 ovarian): > 100 µM
- TGI (BT-549 breast): > 100 µM
- TGI (SF-295 CNS): > 100 µM
- TGI (UACC-257 melanoma): > 100 µM
- TGI (NCI-H460 lung): > 100 µM
- TGI (T-47D breast): > 100 µM
- TGI (MDA-MB-435): > 100 µM
- TGI (HOP-92 NSCLC): > 100 µM
- TGI (SK-MEL-28 melanoma): > 100 µM
- TGI (EKVX NSCLC): > 100 µM
- TGI (TK-10 renal): > 100 µM
- TGI (OVCAR-3 ovarian): > 100 µM
- TGI (MDA-N): > 100 µM
- TGI (UACC-62 melanoma): > 100 µM
- TGI (786-0 renal): > 100 µM
- TGI (NCI/ADR-RES ovarian): > 100 µM

SMILES: Cc1ccc(S(=O)(=O)N(CCNC(=O)c2cccc(O)c2O)c2cc3c4c(c2)Oc2cccc5c2C4(C)c2c(cccc2O3)O5)cc1
- TGI (UO-31 renal): > 100 µM
- TGI (PC-3 prostate): > 100 µM
- TGI (OVCAR-5 ovarian): > 100 µM
- TGI (SF-539 CNS): > 100 µM
- TGI (MCF7 breast): > 100 µM
- TGI (SW-620 colon): > 100 µM
- TGI (SR leukemia): > 100 µM
- TGI (SK-MEL-2 melanoma): > 100 µM
- TGI (HCT-116 colon): > 100 µM
- TGI (LOX IMVI melanoma): > 100 µM
- TGI (NCI-H226 lung): 65.8 µM
- TGI (HT29 colon): > 100 µM
- TGI (SNB-75 CNS): > 100 µM
- TGI (K-562 leukemia): > 100 µM
- TGI (HOP-62 NSCLC): > 100 µM
- TGI (RPMI-8226 leukemia): > 100 µM
- TGI (SNB-19 CNS): > 100 µM
- TGI (A498 renal): > 100 µM
- TGI (OVCAR-4 ovarian): > 100 µM
- TGI (SF-268 CNS): > 100 µM
- TGI (HS 578T breast): > 100 µM
- TGI (MALME-3M melanoma): > 100 µM
- TGI (OVCAR-8 ovarian): > 100 µM
- TGI (NCI-H23 lung): > 100 µM
- TGI (A549 NSCLC): > 100 µM
- TGI (MDA-MB-231 breast): > 100 µM
- TGI (IGROV1 ovarian): > 100 µM
- TGI (SN12C renal): > 100 µM
- TGI (M14 melanoma): > 100 µM
- TGI (U251 CNS): > 100 µM
- TGI (ACHN renal): > 100 µM
- TGI (KM12 colon): > 100 µM
- TGI (HCT-15 colon): > 100 µM
- TGI (SK-MEL-5 melanoma): > 100 µM
- TGI (CAKI-1 renal): > 100 µM
- TGI (HCC-2998 colon): > 100 µM
- TGI (SK-OV-3 ovarian): > 100 µM
- TGI (SF-295 CNS): > 100 µM
- TGI (UACC-257 melanoma): > 100 µM
- TGI (NCI-H460 lung): > 100 µM
- TGI (T-47D breast): > 100 µM
- TGI (MDA-MB-435): > 100 µM
- TGI (SK-MEL-28 melanoma): > 100 µM
- TGI (EKVX NSCLC): > 100 µM
- TGI (TK-10 renal): > 100 µM
- TGI (OVCAR-3 ovarian): > 100 µM
- TGI (MDA-N): > 100 µM
- TGI (UACC-62 melanoma): > 100 µM
- TGI (DU-145 prostate): > 100 µM
- TGI (MOLT-4 leukemia): > 100 µM
- TGI (786-0 renal): > 100 µM
- TGI (NCI/ADR-RES ovarian): 58 µM
